Reference: US10065990B2, “Cyclic peptide compound, and preparation method, pharmaceutical composition and use thereof” (HANGZHOU GUANYU BIO-MEDICAL CO., LTD, priority 2013, dated 2018)
Where two headings read alike, the source gives them in different places.

What was measured:
[1] = molecular target: T1, HDAC7 (Homo sapiens, UniProt Q8WUI4); test: HDAC biochemical activity measurement (fluorescent substrate deacetylation);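 also: fluorogenic deacetylation assay using acetyl-lysine substrate at 20 µM, enzyme and compound incubated 30 min at 37 °C, then developer added, fluorescence read at 360/460 nm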; conditions: HDAC7; 37° C. 30 minutes
T1 sequence (Q8WUI4 1-952): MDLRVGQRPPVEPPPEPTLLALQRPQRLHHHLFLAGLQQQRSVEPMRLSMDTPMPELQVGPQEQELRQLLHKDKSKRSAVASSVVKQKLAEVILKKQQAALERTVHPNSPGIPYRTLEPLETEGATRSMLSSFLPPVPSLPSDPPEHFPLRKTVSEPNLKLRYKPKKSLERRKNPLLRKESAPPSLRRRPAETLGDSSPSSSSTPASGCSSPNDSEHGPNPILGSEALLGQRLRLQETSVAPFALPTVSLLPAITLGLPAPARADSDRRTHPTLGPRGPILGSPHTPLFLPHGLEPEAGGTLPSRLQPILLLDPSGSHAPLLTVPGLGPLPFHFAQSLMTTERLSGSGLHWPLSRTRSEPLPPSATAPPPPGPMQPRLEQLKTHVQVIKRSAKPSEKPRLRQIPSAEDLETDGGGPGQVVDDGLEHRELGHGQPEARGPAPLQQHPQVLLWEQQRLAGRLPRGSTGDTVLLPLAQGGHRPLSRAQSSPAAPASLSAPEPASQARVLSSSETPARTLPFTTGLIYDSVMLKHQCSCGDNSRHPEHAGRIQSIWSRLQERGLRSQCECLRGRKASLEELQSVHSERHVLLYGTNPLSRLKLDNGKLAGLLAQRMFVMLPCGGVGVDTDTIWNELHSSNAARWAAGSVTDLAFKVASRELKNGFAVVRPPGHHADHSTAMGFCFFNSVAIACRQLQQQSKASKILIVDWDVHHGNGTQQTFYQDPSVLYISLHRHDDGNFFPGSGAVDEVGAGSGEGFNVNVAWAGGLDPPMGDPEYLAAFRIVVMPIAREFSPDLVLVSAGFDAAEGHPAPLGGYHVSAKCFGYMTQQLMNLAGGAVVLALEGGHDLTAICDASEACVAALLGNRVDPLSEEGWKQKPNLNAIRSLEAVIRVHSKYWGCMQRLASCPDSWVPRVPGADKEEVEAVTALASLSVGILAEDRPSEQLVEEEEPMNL

[2] = test system: Bel-7402 (human hepatoma cells); test: MTT cancer cell growth inhibition; format: cell-based; conditions: Homo sapiens, Bel-7402, 72 h, MTT, 72 hours incubation, Bel-7402 cells; read-out: GI50 Bel-7402
Description: (§1) MTT assay principle is yellow MTT can penetrate membrane into the cell, succinic dehydrogenase of the mitochondria in living cells can make exogenous MTT reduction of insoluble in water of blue-violet acicular formazan for crystallization and deposition in the cell, crystallization can be dissolved dimethyl sulfoxide (DMSO) solution, detected its absorbance at 490 nm/570 nm wavelength by enzyme-linked immunosorbent assay, which can reflect the number of cells.
(§2) Using DMEM+10% FBS culture medium or using 1640+10% FBS culture, respectively.
(§3) a) Cells were seeded in 96-well plates with the inoculation of 1500/well, 190 μl/hole, 37° C., 5% of CO2 incubator overnight;
(§4) b) The next day each well was added 10 μl of different drugs. The final concentration of drug was 10^−5˜10^−10M, three parallel holes; 37° C., 5% CO2 culture incubator for 72 hours incubation;
(§5) c) Per well was added 20 μl 5 mg/ml of MTT, 37° C., 5% CO2 culture incubator for 4 hours incubation;
(§6) d) The supernatant was discarded. Each well was added 100 μl of DMSO and oscillation;
(§7) e) 570 nm readings. Calculate cell viability. GI50 calculation based on the results.

[3] = test system: BGC-823 (human gastric cancer cells); test: MTT cancer cell growth inhibition; format: cell-based; conditions: Homo sapiens, BGC-823, 72 h, MTT, 72 hours incubation, read-out: GI50 BG
Description: as §1, §2, §3, §4, §5, §6, §7

[4] = test system: U937 (human leukemia cells); test: MTT cancer cell growth inhibition; format: cell-based; conditions: Homo sapiens, U-937, 72 h, MTT, 72 hours incubation, read-out: GI50 U93
Description: as §1, §2, §3, §4, §5, §6, §7

[5] = test system: Hela (human cervical cancer cells); test: MTT cancer cell growth inhibition; format: cell-based; conditions: Homo sapiens, HeLa, 72 h, MTT, 72 hours incubation, read-out: GI50 Hela
Description: as §1, §2, §3, §4, §5, §6, §7

[6] = test system: HT1080 (human fibrosarcoma cells); test: MTT cancer cell growth inhibition; format: cell-based; conditions: Homo sapiens, HT-1080, 72 h, MTT, 72 hours incubation, read-out: GI50 HT1
Description: as §1, §2, §3, §4, §5, §6, §7

[7] = test system: N-87 (human gastric cancer cells); test: MTT cancer cell growth inhibition; format: cell-based; conditions: Homo sapiens, 72 h, MTT, 72 hours incubation, N-87 cells; read-out: GI50 N-87
Description: as §1, §2, §3, §4, §5, §6, §7

[8] = test system: Huh-7 (human hepatoma cells); test: MTT cancer cell growth inhibition; format: cell-based; conditions: Homo sapiens, Huh-7, 72 h, MTT, 72 hours incubation, Huh-7 cells; read-out: GI50 Huh-7
Description: as §1, §2, §3, §4, §5, §6, §7

[9] = test system: H1975 (non-small cell lung adenocarcinoma); test: MTT cancer cell growth inhibition; format: cell-based; conditions: Homo sapiens, NCI-H1975, 72 h, MTT, 72 hours incubation, H1975 cells; read-out: GI50 H1975
Description: as §1, §2, §3, §4, §5, §6, §7

[10] = test system: HCC827 (human non-small cell lung cancer cells); test: MTT cancer cell growth inhibition; format: cell-based; conditions: Homo sapiens, HCC827, 72 h, MTT, 72 hours incubation, HCC827 cells; read-out: GI50 HCC827
Description: as §1, §2, §3, §4, §5, §6, §7

[11] = test system: DU145 (human prostate cancer cells); test: MTT cancer cell growth inhibition; format: cell-based; conditions: Homo sapiens, DU-145, 72 h, MTT, 72 hours incubation, read-out: GI50 Du1
Description: as §1, §2, §3, §4, §5, §6, §7

[12] = test system: A549 (human lung cancer cells); test: MTT cancer cell growth inhibition; format: cell-based; conditions: Homo sapiens, A549, 72 h, MTT, 72 hours incubation, read-out: GI50 A54
Description: as §1, §2, §3, §4, §5, §6, §7

[13] = test system: MCF-7 (human breast cancer cells); test: MTT cancer cell growth inhibition; format: cell-based; conditions: Homo sapiens, MCF7, 72 h, 72 hours incubation, read-out: GI50 MCF
Description: as §1, §2, §3, §4, §5, §6, §7

[14] = test system: KBM5-T315I (human chronic myelogenous leukemia); test: MTT cancer cell growth inhibition; format: cell-based; conditions: Homo sapiens, 72 h, MTT, 72 hours incubation, KBM5-T315I cells; read-out: GI50 KBM5-T315I
Description: as §1, §2, §3, §4, §5, §6, §7

[15] = test system: lncap (prostate cancer cells); test: MTT cancer cell growth inhibition; format: cell-based; conditions: Homo sapiens, LNCaP, 72 h, MTT, 72 hours incubation, read-out: GI50 lnca
Description: as §1, §2, §3, §4, §5, §6, §7

[16] = test system: MDA-MB-231 (breast cancer cells); test: MTT cancer cell growth inhibition; format: cell-based; conditions: Homo sapiens, MDA-MB-231, 72 h, read-out: GI50 MDA-MB-231, MTT, 72 hours incubation, MDA-MB-231 cells
Description: as §1, §2, §3, §4, §5, §6, §7

[17] = test system: KBM-5 (human chronic myelogenous leukemia); test: MTT cancer cell growth inhibition; format: cell-based; conditions: Homo sapiens, KBM5, 72 h, MTT, 72 hours incubation, KBM-5 cells; read-out: GI50 KBM-5
Description: as §1, §2, §3, §4, §5, §6, §7

[18] = test system: MOLT-4 (human acute lymphoblastic leukemia cells); test: MTT cancer cell growth inhibition; format: cell-based; conditions: Homo sapiens, MOLT-4, 72 h, MTT, 72 hours incubation, read-out: GI50 Mol
Description: as §1, §2, §3, §4, §5, §6, §7

[19] = test system: K562 (human leukemia cells); test: MTT cancer cell growth inhibition; format: cell-based; conditions: Homo sapiens, K562, 72 h, MTT, 72 hours incubation, K562 cells; read-out: GI50 K562
Description: as §1, §2, §3, §4, §5, §6, §7

[20] = test system: SGC-7901 (human gastric cancer cells); test: MTT cancer cell growth inhibition; format: cell-based; conditions: Homo sapiens, SGC-7901, 72 h, MTT, 72 hours incubation, SGC-7901 cells; read-out: GI50 SGC-7901
Description: as §1, §2, §3, §4, §5, §6, §7

[21] = test system: PANC-1 (Pac-1, human pancreatic cancer cells); test: MTT cancer cell growth inhibition; format: cell-based; conditions: Homo sapiens, PANC-1, 72 h, MTT, 72 hours incubation, read-out: GI50 PAN
Description: as §1, §2, §3, §4, §5, §6, §7

Compound | IC50 HDAC7 [1] | GI50 [2] [µM] | GI50 [7] [µM] | GI50 [8] [µM] | GI50 [9] [µM] | GI50 [10] [µM] | GI50 [14] [µM] | GI50 [16] [µM] | GI50 [17] [µM] | GI50 [19] [µM] | GI50 [20] [µM] | GI50 ([3]; BGC-823 cells) [µM] | GI50 ([4]; U937 cells) [µM] | GI50 ([5]; Hela cells) [µM] | GI50 ([6]; HT1080 cells) [µM] | GI50 ([11]; DU145 cells) [µM] | GI50 ([12]; A549 cells) [µM] | GI50 ([13]; MCF-7 cells) [µM] | GI50 ([15]; lncap cells) [µM] | GI50 ([18]; MOLT-4 cells) [µM] | also measured
CC(C)=C1NC(=O)c2cc(F)cc(n2)CNC(=O)C[C@@H](/C=C/CCS)OC(=O)[C@H](C(C)C)NC1=O [Compound 137] | no activity | 0.016 | 0.029 | 0.043 | 0.053 | 0.049 | 0.026 | 0.045 | 0.048 | 0.035 | 0.081 | – | – | – | – | – | – | – | – | – | GI50 [3]: 0.03 µM; GI50 [4]: 0.03 µM; GI50 [5]: 0.07 µM; GI50 [6]: 0.08 µM; GI50 [11]: 0.03 µM; GI50 [12]: 0.02 µM; GI50 [13]: 0.03 µM; GI50 [15]: 0.02 µM; GI50 [18]: 0.04 µM; GI50 [21]: 0.08 µM
C/C=C1\NC(=O)c2cc(SC)cc(n2)CNC(=O)C[C@@H](/C=C/CCS)OC(=O)[C@H](C(C)C)NC1=O [Compound 227] | no activity | 0.072 | 0.019 | 0.017 | 0.035 | 0.045 | 0.055 | 0.051 | 0.049 | 0.023 | 0.053 | 0.05 | 0.04 | 0.07 | 0.07 | 0.06 | 0.02 | 0.02 | 0.02 | 0.06 | GI50 ([21]; PANC-1 cells): 0.01 µM
C/C=C1\NC(=O)c2nc(ccc2SCC)CNC(=O)C[C@@H](/C=C/CCSC(=O)CCCCCCC)OC(=O)[C@H](C(C)C)NC1=O [Compound 247] | no activity | 0.095 | 0.023 | 0.053 | 0.032 | 0.041 | 0.045 | 0.038 | 0.032 | 0.033 | 0.065 | 0.01 | 0.07 | 0.05 | 0.06 | 0.02 | 0.06 | 0.05 | 0.02 | 0.03 | GI50 ([21]; PANC-1 cells): 0.05 µM
